Experimental data published in the supplement of paper PMC10307832.

Key:
Assay in all cases: relative viability (nuclei count vs DMSO), 5 days (fraction); higher = more cells survive
[1] = compound: Cc1ccc2nc(NCCN)c3ncc(C)n3c2c1 + CS(=O)(=O)CCNCc1ccc(-c2ccc3ncnc(Nc4ccc(OCc5cccc(F)c5)c(Cl)c4)c3c2)o1 [Lapatinib] (partner 2 µM)
Outline: (§1)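 One day after seeding in 1536-well plates, lung cancer cell lines were dosed by pin tool. Dosing was either single-drug or a fixed anchor-drug dose plus five library-drug doses (not always all listed) in √10 steps. After 5 days, nuclei were stained in one fix-and-stain step and counted on 4× images, and relative viability is the nuclei count of treated wells over that of vehicle wells, given as the median of duplicate plates.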

Salubrinal + Tozasertib = compound: O=C(/C=C/c1ccccc1)NC(NC(=S)Nc1cccc2cccnc12)C(Cl)(Cl)Cl [Salubrinal] + Cc1cc(Nc2cc(N3CCN(C)CC3)nc(Sc3ccc(NC(=O)C4CC4)cc3)n2)n[nH]1 [Tozasertib] (partner 0.1 µM)
Outline: as §1

Salubrinal + Alpelisib = compound: O=C(/C=C/c1ccccc1)NC(NC(=S)Nc1cccc2cccnc12)C(Cl)(Cl)Cl [Salubrinal] + Cc1nc(NC(=O)N2CCC[C@H]2C(N)=O)sc1-c1ccnc(C(C)(C)C(F)(F)F)c1 [Alpelisib] (partner 2 µM)
Outline: as §1

Salubrinal + Olaparib = compound: O=C(/C=C/c1ccccc1)NC(NC(=S)Nc1cccc2cccnc12)C(Cl)(Cl)Cl [Salubrinal] + O=C(c1cc(Cc2n[nH]c(=O)c3ccccc23)ccc1F)N1CCN(C(=O)C2CC2)CC1 [Olaparib] (partner 8 µM)
Outline: as §1

| Cell Line | relative viability ([1]; first compound 0.04 µM) | relative viability ([1]; first compound 0.1265 µM) | relative viability ([1]; first compound 0.4 µM) | relative viability ([1]; first compound 1.265 µM) | relative viability ([1]; first compound 4 µM) | relative viability (Salubrinal + Tozasertib; first compound 0.08 µM) | relative viability (Salubrinal + Tozasertib; first compound 0.253 µM) | relative viability (Salubrinal + Tozasertib; first compound 0.8 µM) | relative viability (Salubrinal + Tozasertib; first compound 2.53 µM) | relative viability (Salubrinal + Tozasertib; first compound 8 µM) | relative viability (Salubrinal + Alpelisib; first compound 0.08 µM) | relative viability (Salubrinal + Alpelisib; first compound 0.253 µM) | relative viability (Salubrinal + Alpelisib; first compound 0.8 µM) | relative viability (Salubrinal + Alpelisib; first compound 2.53 µM) | relative viability (Salubrinal + Alpelisib; first compound 8 µM) | relative viability (Salubrinal + Olaparib; first compound 0.08 µM) | relative viability (Salubrinal + Olaparib; first compound 0.253 µM) | relative viability (Salubrinal + Olaparib; first compound 0.8 µM) | relative viability (Salubrinal + Olaparib; first compound 2.53 µM) | relative viability (Salubrinal + Olaparib; first compound 8 µM) |
| --- | --- | --- | --- | --- | --- | --- | --- | --- | --- | --- | --- | --- | --- | --- | --- | --- | --- | --- | --- | --- |
| HARA | 0.748 | 0.863 | 0.553 | 0.691 | 0.821 | 0.122 | 0.108 | 0.111 | 0.0979 | 0.106 | 0.948 | 0.931 | 0.848 | 0.937 | 0.78 | 0.834 | 1.17 | 0.907 | 0.682 | 0.634 |
| HCC-15 | 0.888 | 0.811 | 0.776 | 0.75 | 0.737 | 0.481 | 0.332 | 0.41 | 0.438 | 0.257 | 0.988 | 0.789 | 0.994 | 0.94 | 0.945 | 0.766 | 0.711 | 0.784 | 0.702 | 0.68 |
| HCC-44 | 0.961 | 0.993 | 1.01 | 0.99 | 1.01 | 1.24 | 0.916 | 1.08 | 0.74 | 0.708 | 0.904 | 0.758 | 0.806 | 0.84 | 0.671 | 1 | 0.968 | 1.03 | 0.957 | 1.03 |
| HCC-78 | 1.03 | 0.738 | 0.775 | 0.861 | 0.697 | 0.372 | 0.343 | 0.345 | 0.351 | 0.314 | 0.345 | 0.377 | 0.349 | 0.307 | 0.316 | 1 | 0.964 | 1 | 0.788 | 0.9 |
| HCC-366 | 1.14 | 0.91 | 1.11 | 1.07 | 0.998 | 0.106 | 0.0941 | 0.118 | 0.0829 | 0.0635 | 0.609 | 0.361 | 0.426 | 0.472 | 0.326 | 0.459 | – | 0.401 | 0.341 | 0.357 |
| IA-LM | 1.02 | 0.833 | 0.581 | 1 | 0.7 | – | – | – | – | – | 0.828 | 0.906 | 0.885 | 0.66 | 0.747 | 0.842 | 0.83 | 0.935 | 0.704 | 0.72 |
| LCLC-103H | – | – | – | – | – | 0.487 | 0.445 | 0.404 | 0.498 | 0.42 | 0.953 | 0.917 | 1.05 | 1.02 | 0.932 | 0.866 | 0.572 | 0.853 | 0.769 | 0.76 |
| NCI-H441 | – | – | – | – | – | 0.554 | 0.431 | 0.74 | 0.576 | 0.448 | 0.832 | 0.61 | 1.01 | 0.709 | 0.645 | 0.732 | 0.448 | 0.675 | 0.542 | 0.514 |
| NCI-H522 | – | – | – | – | – | 0.566 | 0.588 | 0.524 | 0.589 | 0.569 | – | – | – | – | – | 0.565 | 0.648 | 0.701 | 0.686 | 0.637 |
| NCI-H1299 | 0.957 | 0.935 | 0.954 | 0.911 | 0.809 | – | – | – | – | – | 1.04 | 1.03 | 1.05 | 1.15 | 0.982 | 0.98 | 0.947 | 0.993 | 0.951 | 0.936 |
| NCI-H1563 | 0.963 | 1 | 0.88 | 1.15 | 0.88 | – | – | – | – | – | 0.882 | 0.939 | 1.1 | 0.925 | 0.878 | – | – | – | – | – |
| NCI-H1623 | – | – | – | – | – | 0.431 | 0.434 | 0.445 | 0.396 | 0.412 | – | – | – | – | – | – | – | – | – | – |
| NCI-H1648 | – | – | – | – | – | 0.466 | 0.586 | 0.334 | 0.501 | 0.247 | – | – | – | – | – | 0.751 | 1.03 | 0.476 | 1.02 | 0.594 |
| NCI-H1650 | 0.887 | 0.764 | 0.434 | 0.836 | 0.65 | 0.419 | 0.349 | 0.336 | 0.327 | 0.407 | – | – | – | – | – | 0.941 | 0.705 | 0.811 | 0.751 | 0.804 |
| NCI-H1703 | 1.15 | 0.958 | 1.03 | 1.19 | 0.997 | – | – | – | – | – | 0.394 | 0.359 | 0.324 | 0.365 | 0.374 | 0.414 | 0.721 | 0.416 | 0.486 | 0.385 |
| NCI-H1792 | 0.944 | 0.904 | 0.837 | 0.857 | 0.81 | – | – | – | – | – | 0.8 | – | 0.646 | 0.676 | 0.611 | 0.531 | – | 0.583 | 0.287 | 0.408 |
| NCI-H2342 | – | – | – | – | – | 0.457 | 0.503 | 0.527 | 0.583 | 0.533 | – | – | – | – | – | 0.456 | 0.45 | 0.455 | 0.432 | 0.497 |
| SW 900 | – | – | – | – | – | 0.539 | – | 0.681 | 0.568 | 0.337 | – | – | – | – | – | 1.04 | 1.07 | 0.892 | 0.793 | 0.801 |
